Laboratory results taken from patent US10138242B2, “Pyrazolopyridine derivatives and their use in therapy” (HELMHOLTZ ZENTRUM MUENCHEN—DEUTSCHES FORSCHUNGSZENTRUM FUER …, priority 2015, dated 2018).

Legend:
[1] = biological target: PEX5-PEX14 complex (biotin-coupled PEX5 peptide, His-tagged T. brucei PEX14) (Trypanosoma brucei brucei, UniProt Q38CL4); assay: biochemical; format: binding; conditions: 30 nM PEX5, 30 nM PEX14; quadruplicate; read-out: AlphaScreen EC50 [μM] (±SD)
Text: The assay uses two types of beads: donor beads are coupled with streptavidin, and acceptor beads are coupled with an anti His-tag antibody. Upon excitation with light of a wavelength of 680 nm the donor beads produce reactive oxygen species that travel in solution only for a limited distance. If the acceptor beads are within that travel distance, it will absorb the reactive oxygen and emit light in the range of 520-620 nm. […] Thus, PEX5-PEX14 complex dissociation by a ligand caused decrease in light emission as the donor and acceptor beads were separated. Typically, we used 30 nM PEX5, 30 nM PEX14 and bead concentrations of 5 μg/mL. The PEX5-PEX14 complex was incubated with varying concentrations of inhibitor for 1 hour. Next, the beads were added and the system allowed to equilibrate for another hour. The raw data were fitted to four parameter sigmoidal curves by Origin software and EC50 values calculated. Each measurement was performed in quadruplicate and every experiment was accompanied with blank and reference samples (using non-biotynylated PEX5 peptide as a binding competitor).

[2] = system: T. brucei brucei bloodstream form parasites (strain Lister 427); assay: Antitrypanosomal activity assay (resazurin; FIG. 2); format: cell-based; conditions: Trypanosoma brucei; 66 h + 6 h resazurin
Procedure: (A) The trypanosoma cell count and growth were evaluated at different doses of compounds of the invention.
Antitrypanosomal activity was tested on T. brucei brucei bloodstream from parasites (strain—Lister 427, VATMITat 1.2). Stock solutions of compounds (50 mM) were prepared in DMSO. Two fold serial dilutions of each compound (10 wells in each row) were prepared in 96 well plates in HMI111 medium (100 μl/well; quadruplicates; cf. also Hirumi et al., J. Parasitol. 75 (1989), 985-989). One well without compound, and one well with media alone were included in each row. […] The plates were incubated for 66 hours at 37° C. in the incubator with 5% CO2. 20 μl resazurin (Sigma, 0.125 mg/ml in Hanks Balanced Salt Solution) was added to all wells and the plate was further incubated for 6 hours. Change in color of resazurin (blue to pink) by living cells was measured with a 96 well plate reader (excitation at 530 nm, emission at 585 nm, filter cut-off: 570 nm). Percent inhibition values were calculated by setting the well without compound to “0% inhibition”.

PEX5-PEX14 complex (biotin-coupled PEX5 peptide, His-tagged T. brucei PEX14), sequence (Q38CL4 1-366, one chain of several): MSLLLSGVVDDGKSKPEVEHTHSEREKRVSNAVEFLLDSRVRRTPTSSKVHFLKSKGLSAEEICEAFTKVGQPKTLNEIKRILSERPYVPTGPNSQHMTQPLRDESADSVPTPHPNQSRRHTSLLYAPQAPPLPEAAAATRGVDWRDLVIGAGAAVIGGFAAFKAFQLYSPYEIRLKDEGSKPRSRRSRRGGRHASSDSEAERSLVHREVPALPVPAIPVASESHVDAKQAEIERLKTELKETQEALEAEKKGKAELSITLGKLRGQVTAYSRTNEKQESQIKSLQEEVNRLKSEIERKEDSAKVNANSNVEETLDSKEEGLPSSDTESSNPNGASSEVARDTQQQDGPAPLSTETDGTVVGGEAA

Which EC50 [1] does the source give for `COc1cc(CN2CCc3c(c(C(=O)NCc4ccccc4)nn3CCO)C2)cc2c1OCO2` [Compound 75] here?
Its EC50 is 94.9 µM.

For `COc1ccc(CN2CCc3c(c(C(=O)NCc4cccc5cccnc45)nn3CCO)C2)c2ccccc12` [Compound 61], which IC50 [2] is on record?
The IC50 was 7 µM.

What about the EC50 [1] of the same compound?
The EC50 was 24.1 µM.

Which results are given for `CCCc1ccc(CN2CCc3c(c(C(=O)NCc4cccc5ccccc45)nn3CCO)C2)cc1` [Compound 49]?
IC50 [2]: 2.7 µM; EC50 [1]: 32.5 µM

With `CCc1ccc(CN2CCc3c(c(C(=O)NCc4ccccc4)nn3CCO)C2)cc1` [Compound 23] as the compound, how does the EC50 [1] read?
Its EC50 is 133 µM.

`COc1ccc2cc(CN3CCc4c(c(C(=O)NCc5cccc6ccccc56)nn4CCO)C3)ccc2c1` [Compound 114] was tested. Which IC50 [2] did it give?
Its IC50 is 3.9 µM.

And the EC50 [1]?
Its EC50 is 121 µM.

For `Cn1nc(C(=O)NCc2ccccc2)c2c1CCN(Cc1c[nH]c3cc(OCc4ccccc4)ccc13)C2` [Compound 11], which IC50 [2] is on record?
The IC50 was 1.1 µM.

And the EC50 [1]?
The EC50 was 22.1 µM.

For `Cc1nc2sccn2c1CN1CCc2c(c(C(=O)NCc3ccccc3)nn2CCO)C1` [Compound 63], which EC50 [1] is on record?
The EC50 was 171 µM.

With `COc1ccc(CN2CCc3c(c(C(=O)NCc4cccc5ccccc45)nn3C3CCC3)C2)c2ccccc12` [Compound 18] as the compound, how does the IC50 [2] read?
Its IC50 is 1.85 µM.

And the EC50 [1]?
The EC50 was 11.1 µM.

With `O=C(NCc1cccc2ccccc12)c1nn(CCO)c2c1CN(Cc1ccc(C(F)(F)F)cc1)CC2` [Compound 48] as the compound, how does the IC50 [2] read?
The IC50 was 5.4 µM.

What about the EC50 [1] of the same compound?
Its EC50 is 34 µM.

How did the EC50 [1] turn out when `CC(NC(=O)c1nn(CCO)c2c1CN(Cc1cccc3c1OCO3)CC2)c1ccccc1` (stereo not shown) [Compound 69] was run?
The EC50 was 151 µM.

Which IC50 [2] does the source give for `COc1ccc2[nH]c(CN3CCc4c(c(C(=O)NCc5cccc6ccccc56)nn4CCO)C3)cc2c1` [Compound 110] here?
The IC50 was 2.6 µM.

What about the EC50 [1] of the same compound?
Its EC50 is 43.8 µM.

With `COc1ccc(CN2CCc3c(c(C(=O)NCc4cccc5ccccc45)nn3CCC(C)(C)C)C2)c2ccccc12` [Compound 124] as the compound, how does the IC50 [2] read?
The IC50 was 3.5 µM.

For `O=C(NCc1cccc2ccccc12)c1nn(CCO)c2c1CN(Cc1c[nH]c3cc(OCc4ccccc4)ccc13)CC2` [Compound 113], which EC50 [1] is on record?
The EC50 was 72.1 µM.

What does the source list for `COc1ccc(CN2CCc3c(c(C(=O)NCc4cccc5ccccc45)nn3CC(O)CN)C2)c2ccccc12` (stereo not shown) [Compound 104]?
IC50 [2]: 0.2 µM; EC50 [1]: 10.6 µM

With `COc1ccc(CN2CCc3c(c(C(=O)NCc4cccc5[nH]ccc45)nn3CCO)C2)c2ccccc12` [Compound 60] as the compound, how does the IC50 [2] read?
The IC50 was 5.6 µM.

And the EC50 [1]?
Its EC50 is 20.2 µM.

With `O=C(NCc1ccccc1)c1nn(CCO)c2c1CN(Cc1ccccc1C(F)(F)F)CC2` [Compound 72] as the compound, how does the EC50 [1] read?
Its EC50 is 223 µM.

How did the EC50 [1] turn out when `C=CCn1nc(C(=O)NCc2ccccc2)c2c1CCN(Cc1ccc3ncccc3c1)C2` [Compound 79] was run?
Its EC50 is 95.4 µM.

What does the source list for `O=C(NCc1cccc2ccccc12)c1nn(CCO)c2c1CN(Cc1ccc(-c3ccccc3)cc1)CC2` [Compound 38]?
IC50 [2]: 3.7 µM; EC50 [1]: 10.4 µM

With `CC(NC(=O)c1nn(CCO)c2c1CN(Cc1cnn(-c3ccccc3)c1)CC2)c1ccccc1` (stereo not shown) [Compound 65] as the compound, how does the EC50 [1] read?
Its EC50 is 112 µM.

Which IC50 [2] does the source give for `CCOC(=O)CN(Cc1cccc2ccccc12)C(=O)c1nn(CCO)c2c1CN(Cc1ccc(OC)c3ccccc13)CC2` [Compound 121] here?
Its IC50 is 5 µM.

`COc1ccc(CN2CCc3c(c(C(=O)NCc4cccc5ccccc45)nn3-c3cnccn3)C2)c2ccccc12` [Compound 14] was tested. Which IC50 [2] did it give?
Its IC50 is 3.61 µM.

What about the EC50 [1] of the same compound?
The EC50 was 11.9 µM.

`O=C(NCc1ccccc1)c1nn(CCO)c2c1CN(Cc1cnn(-c3ccccc3)c1)CC2` [Compound 82] was tested. Which EC50 [1] did it give?
The EC50 was 149 µM.

With `Cn1nc(C(=O)NCc2ccc3ccccc3c2)c2c1CCN(Cc1c[nH]c3ccccc13)C2` [Compound 31] as the compound, how does the EC50 [1] read?
Its EC50 is 35.2 µM.

`Cn1nc(C(=O)NCc2ccccc2)c2c1CCN(Cc1cccc3ccccc13)C2` [Compound 12] was tested. Which IC50 [2] did it give?
Its IC50 is 12 µM.

For `O=C(NCc1ccccc1)c1nn(CCO)c2c1CN(Cc1ccc3c(c1)OC=CO3)CC2` [Compound 68], which EC50 [1] is on record?
The EC50 was 159 µM.

`CCc1ccc(CN2CCc3c(c(C(=O)NCc4ccccc4)nn3CCO)C2)cc1` [Compound 71] was tested. Which EC50 [1] did it give?
Its EC50 is 150 µM.

Which IC50 [2] does the source give for `COc1ccc(CN2CCc3c(c(C(=O)NCc4cccc5ccccc45)nn3CCNC(=N)N)C2)c2ccccc12` [Compound 94] here?
The IC50 was 0.74 µM.

What about the EC50 [1] of the same compound?
Its EC50 is 1.4 µM.

For `O=C(NCc1cccc2ccccc12)c1nn(CCO)c2c1CN(Cc1cccc(-c3ccccc3)c1)CC2` [Compound 39], which IC50 [2] is on record?
The IC50 was 5.5 µM.

What about the EC50 [1] of the same compound?
The EC50 was 12.7 µM.

Which IC50 [2] does the source give for `O=C(NCc1ccccc1)c1nn(CCO)c2c1CN(Cc1ccn(-c3ccccc3)c1)CC2` [Compound 27] here?
Its IC50 is 39 µM.

And the EC50 [1]?
The EC50 was 196 µM.

Which IC50 [2] does the source give for `COc1ccc(CN2CCc3c(c(C(=O)NCc4cccc5ccccc45)nn3C3CN(C(=O)C(C)(C)C)C3)C2)c2ccccc12` [Compound 15] here?
The IC50 was 1.47 µM.

And the EC50 [1]?
Its EC50 is 7.92 µM.

With `COC(=O)c1cccc2c(CN3CCc4c(c(C(=O)NCc5ccccc5)nn4CCO)C3)c[nH]c12` [Compound 28] as the compound, how does the EC50 [1] read?
Its EC50 is 155 µM.

For `O=C(NCc1ccccc1)c1nn(CCO)c2c1CN(CC(c1ccccc1)c1ccccc1)CC2` [Compound 81], which EC50 [1] is on record?
The EC50 was 74.9 µM.

`COc1ccc(CN2CCc3[nH]nc(C(=O)NCc4cccc5ccccc45)c3C2)c2ccccc12` [Compound 5] was tested. Which IC50 [2] did it give?
Its IC50 is 3.4 µM.

And the EC50 [1]?
The EC50 was 16.5 µM.

`Cn1nc(C(=O)NCc2ccccc2)c2c1CCN(Cc1noc3c1CCCC3)C2` [Compound 70] was tested. Which EC50 [1] did it give?
Its EC50 is 9.69 µM.

For `NCCn1nc(C(=O)NCc2cccc3ccccc23)c2c1CCN(Cc1ccc(Cl)c(Cl)c1)C2` [Compound 105], which IC50 [2] is on record?
The IC50 was 0.34 µM.

What about the EC50 [1] of the same compound?
Its EC50 is 11.6 µM.

`O=C(NCc1ccccc1)c1nn(CCO)c2c1CN(CC1=CC(=O)C3C=C(Cl)C=CC3O1)CC2` (stereo not shown) [Compound 64] was tested. Which EC50 [1] did it give?
Its EC50 is 132 µM.

Which EC50 [1] does the source give for `O=C(c1nn(Cc2ccccn2)c2c1CN(Cc1ccccc1)CC2)N1CCc2ccccc2C1` [Compound 67] here?
Its EC50 is 74.3 µM.

With `O=C(NCc1ccccc1)c1nn(CCO)c2c1CN(Cc1ccc(-c3ccccc3)cc1)CC2` [Compound 78] as the compound, how does the EC50 [1] read?
The EC50 was 68.8 µM.

With `Cc1ccc(CCN2CCc3c(c(C(=O)NCc4cccc5ccccc45)nn3CCO)C2)cc1` [Compound 118] as the compound, how does the EC50 [1] read?
Its EC50 is 632 µM.

Which EC50 [1] does the source give for `O=C(CC1CC1)N1CCc2c(c(C(=O)N3CCc4ccccc4C3)nn2Cc2ccccn2)C1` [Compound 73] here?
Its EC50 is 220 µM.

For `O=C(NCc1cccc2ccccc12)c1nn(CCO)c2c1CN(CCc1ccccc1)CC2` [Compound 116], which EC50 [1] is on record?
The EC50 was 230 µM.

How did the EC50 [1] turn out when `O=C(NCc1ccccc1)c1nn(CCO)c2c1CN(Cc1ccccc1-c1ccco1)CC2` [Compound 74] was run?
Its EC50 is 78.3 µM.

`O=C(NCc1cccc2ccccc12)c1nn(CCO)c2c1CN(Cc1c[nH]c3c(C(=O)O)cccc13)CC2` [Compound 117] was tested. Which EC50 [1] did it give?
The EC50 was 391 µM.

`CC(NC(=O)c1nn(CCO)c2c1CN(C(=O)c1ncc3sccn13)CC2)c1ccccc1` (stereo not shown) [Compound 87] was tested. Which EC50 [1] did it give?
Its EC50 is 230 µM.

For `CC(NC(=O)c1nn(CCO)c2c1CN(CC1Cc3ccccc3CN1C)CC2)c1ccccc1` (stereo not shown) [Compound 86], which EC50 [1] is on record?
Its EC50 is 169 µM.

Which EC50 [1] does the source give for `O=C(NCc1ccccc1)c1nn(CCO)c2c1CN(Cc1cccn1-c1ccccn1)CC2` [Compound 83] here?
The EC50 was 132 µM.

`CC(=O)c1ccc(CN2CCc3c(c(C(=O)NCc4ccccc4)nn3CCO)C2)cc1` [Compound 29] was tested. Which EC50 [1] did it give?
Its EC50 is 222 µM.

How did the EC50 [1] turn out when `O=C(NCc1ccccc1)c1nn(CCO)c2c1CN(Cc1cccc(OC(F)F)c1)CC2` [Compound 76] was run?
The EC50 was 148 µM.

For `Cc1ccccc1-c1ccc(CN2CCc3c(c(C(=O)NCc4ccccc4)nn3CCO)C2)cc1` [Compound 80], which EC50 [1] is on record?
Its EC50 is 45.9 µM.

How did the EC50 [1] turn out when `Cn1nc(C(=O)NCc2cccc3ccccc23)c2c1CCN(Cc1cccc3ccccc13)C2` [Compound 33] was run?
Its EC50 is 41.8 µM.

With `C=C(C)C1CC=C(CN2CCc3c(c(C(=O)NCc4ccccc4)nn3CCO)C2)CC1` (stereo not shown) [Compound 77] as the compound, how does the EC50 [1] read?
Its EC50 is 142 µM.

With `COC(=O)c1ccc2c(CN3CCc4c(c(C(=O)NCc5cccc6ccccc56)nn4CCO)C3)c[nH]c2c1` [Compound 108] as the compound, how does the EC50 [1] read?
The EC50 was 38.7 µM.

With `CC(NC(=O)c1nn(CCO)c2c1CN(Cc1ccc3ccoc3c1)CC2)c1ccccc1` (stereo not shown) [Compound 66] as the compound, how does the EC50 [1] read?
The EC50 was 147 µM.
